# Test results: patent publication US20140243418A1, “RASAGILINE FOR PARKINSON'S DISEASE MODIFICATION” (Teva Pharmaceutical Industries, Ltd., priority 2008, published 2014)
# Legend:
# Early Stage PD patients [1] = system: Early Stage PD patients
# Text: If, at any stage during the placebo-controlled phase the investigator determines that a subject needs additional anti-PD therapy, the subject will proceed to Phase II of the study. The investigator, aided by a questionnaire, will give careful consideration to the issue of a subject's need for additional anti-PD therapy. Scheduled in-clinic visits will be conducted at baseline and at weeks 4, 12, 24 and 36. Therefore, altogether there will be 5 scheduled visits during this phase. Unscheduled visits may be conducted at any time to assess a subject's need for additional anti-PD therapy, for safety reasons or for any other reason.
# (§1) III. Additional Efficacy Endpoints • 1. Number (%) of subjects who need additional anti-PD therapy • 2. Time to need of additional anti-PD therapy • 3. Change from baseline to LOV in placebo-controlled phase in Part I of revised UPDRS (version 4)
# Early Stage PD patients [2] = conditions: rasagiline 1 mg and 2 mg; end of the PC phase
# Text: IV. Sub-Study • 1. Change from baseline to LOV in placebo-controlled phase in Parkinson Fatigue scale • 2. Change from baseline in Subject Reported Outcomes (US only) • 3. A blood sample for pharmacogenetic analysis will be collected from all subjects at baseline. If not performed at baseline, can be performed at any other visit. Participation in this sub-study is voluntary pending IRB/EC approval and subject's authorization on a separate informed consent form.
# PD patients = conditions: cited from earlier work
# Early Stage PD patients [3] = conditions: 1 mg only; end of the PC phase
# Text: as §1
compound,measurement,setting,value
C#CCN[C@@H]1CCc2ccccc21 [rasagiline],"Hazard Ratio, time to additional anti-PD therapy, 1 mg-Placebo Difference","Early Stage PD patients [1]; PC Phase, rasagiline 1 mg vs placebo, Cox Proportional Hazards Model",0.385
same,"Hazard Ratio, time to additional anti-PD therapy, 2 mg-Placebo Difference","Early Stage PD patients [1]; PC Phase, rasagiline 2 mg vs placebo, Cox Proportional Hazards Model",0.379
same,Need for additional anti PD Therapy,"Early Stage PD patients [1]; rasagiline 1 mg and 2 mg, end of the PC phase",beneficial effect
same,Parkinson Fatigue Scale,Early Stage PD patients [2],beneficial effect
same,functional decline vs treatment delayed for 6 months,"PD patients; 1 and 2 mg/d rasagiline for one year, TEMPO",less functional decline
same,efficacy as monotherapy in PD patients,"PD patients; first 6-month double-blind, randomized placebo-controlled stage of TEMPO",efficacious as monotherapy
same,UPDRS Version 4 Part 1,Early Stage PD patients [3],beneficial effect
